Experimental data as given in patent publication US11820762B2, “Compounds as potential therapeutic agents targeting various neurodegenerative diseases” (The Hong Kong University of Science and Technology, priority 2020, dated 2023).

How the values were obtained:
[1] = tested on: human telomeric variant htel21_T18 G4; experiment: 1D 1H-NMR titration of human telomeric variant htel21_T18 G4; format: binding; details: cA at 1:10
Method: (§1) Single […] were purchased from Integrated DNA Technologies (IDT) and Takara. Single-strand DNA/RNA sample at 100 μM was then annealed by heating up to 95° C. for 15 mins, and slowly cooled to room temperature in the annealing buffer (70 mM KCl, 20 mM potassium phosphate (pH 7.0)) for overnight. The final NMR samples contained 0.1 mM DNA or RNA in 70 mM KCl and 20 mM potassium phosphate buffer (pH 7.0).
(§2) The 1D ^1H-NMR spectra were performed at 25° C. All compounds were dissolved in isotope-labeled d6-DMSO (Sigma-Aldrich) at about 50 mM concentration, working as stock solutions. To avoid chemical shift changes of DNA/RNA G4 resulted from d6-DMSO addition, […] d6-DMSO was added into 500 μL of 0.1 mM DNA/RNA G4 solution in the NMR buffer (20 mM potassium phosphate buffer and 70 mM KCl, pH 7.0, 10% D2O) and then 1D ^1H-NMR spectrum was recorded as a reference. During NMR titration experiments of adding each compound into the DNA/RNA G4 solution, the maximal volume of 10 μL of each compound in d6-DMSO solution was regarded as a final data point.
(§3) In addition to the four-repeat G4C2 DNA G4, there are parallel and hybrid G4 conformations formed simultaneously by the two-repeat G4C2 DNA^38,39. […]

[2] = tested on: DNA (G4C2)2 (SEQ ID NO: 4) G4; experiment: 1D 1H-NMR titration of DNA (G4C2)2 G4; format: binding; details: cA at 1:1, 1:5, 1:10
Method: as §1, §2, §3

Neuro2a cells = experiment: Permeability on live cells (cell lysates analysed by UPLC-MS); format: in vitro ADME; details: 10, 20 μg/ml; 24 h, 48 h; UPLC-MS of lysates
Method: (§4) In addition, we also tested the permeability on live cells. Neuro2a cells treated with cA at different concentrations (10 μg/ml, 20 μg/ml) for different incubation time (24 h, 48 h) were lysed. Supernatants of cell lysates were collected and analyzed by UPLC-MS. Meanwhile, cell media from different treatment groups were used as control. […] In contrast, the intensity of cA signal was the same in the three corresponding cell media groups (FIG. 25, 4-6).

[3] = tested on: human telomeric htel23 G4; experiment: 1D 1H-NMR titration of human telomeric htel23 G4; format: binding; details: 1:10 titration
Method: as §1, §2, §3

[4] = tested on: RNA (G4C2)2 (SEQ ID NO: 8) G4; experiment: 1D 1H-NMR titration of RNA (G4C2)2 G4; format: binding; details: ratios 1:3, 1:5, 1:10
Method: as §1
as §2, with “point. […]” for “point.”

[5] = tested on: DNA G-quadruplex formed by chicken DNA replication origin; experiment: 1D 1H-NMR titration of chicken DNA G-quadruplex; format: binding; details: 1:3 titration
Method: as §1, §2, §3

[6] = Parallel artificial membrane permeability assay (PAMPA); format: in vitro ADME; details: PAMPA
Method: 500 μL of 500 μM test compound and 200 μM Equilibrium Standards for each test compound were prepared. 5 μL DMSO plus 245 μL PBS served as blank control. Firstly, 300 μL PBS was added to each well in the acceptor plate. With the donor plate in its tray, 5 μL 4% Lecithin in Dodecane was added directly to the well membranes of the donor plate. 200 μL of each 500 μM test compound was added to duplicate wells of the donor plate. The donor plate was carefully placed into the acceptor plate wells and incubated at 37° C. for 18 hours. Then the liquid in acceptor plate wells was collected as Acceptor Solution for analysis. Absorbance spectrum from 200 nm to 500 nm in 10 nm intervals was read to determine the peak absorbance of test compounds and blank control.
as §4

Structure (SMILES)	binding to htel21_T18 G4 by NMR titration [1]	binding to DNA (G4C2)2 G4 by NMR titration [2]	entry into live cells (Neuro2a cells)	binding to htel23 G4 by NMR titration [3]	binding to RNA (G4C2)2 G4 by NMR titration [4]	binding to chicken DNA G-quadruplex by NMR titration [5]	permeability (PAMPA) [6]
CC(=O)Cc1cc2c(c(O)c1C(=O)O)-c1c(c(O)c3oc4c(O[C@@H]5OC(C(=O)O)=C[C@H](O)[C@H]5O)cccc4c(=O)c3c1O)CC2 [cA, chrexanthomycin A]	no obvious chemical shift changes	neither with 1:1 (light brown), 1:5 (blue) nor 1:10 (pink) titration of cA made significant chemical shift changes	could penetrate cell membrane and enter into cells	no obvious chemical shift changes	Chemical shift changes were observed	did not show binding	–
CC(=O)Cc1cc2c(c(O)c1C(=O)O)-c1c(c(O)c3oc4c(O[C@@H]5O[C@H](C(=O)O)[C@@H](O)[C@H](O)[C@H]5O)cccc4c(=O)c3c1O)CC2 [cC, chrexanthomycin C]	–	–	–	–	–	–	good permeability
